One data set deals with HepG-2. Kind of data set: MTT anticancer activity, HepG-2. In kind it is cell-based, human. Conditions: for IC50: Homo sapiens, HepG2, HepG-2, 72 h, MTT, mean ± SEM; for SI: ratio IC50 on normal cells (Wi-38) / IC50 on HepG-2. From the text: (§1) All derivatives were subjected to preliminary cytotoxicity screening on normal human lung fibroblasts (Wi-38) for selectivity assessment, followed by anticancer evaluation against MDA-MB231, Caco-2, and HepG-2 cells compared to the reference multitarget chemotherapeutic agent doxorubicin (Dox) by MTT assay. It is worth mentioning that previous studies reported that Dox inhibits the VEGF pathway which is the main anticancer target of the current study via various mechanisms.
(§2) The compounds’ cytotoxicity on normal and cancer cells was assayed by MTT as reported and detailed in the Supplementary Materials. […]
(§3) 2.1. Cytotoxicity screening on normal human lung fibroblasts (Wi-38)
(§4) The normal human lung fibroblast Wi-38 cell line was used to detect cytotoxicity of the studied compounds. Wi-38 cell line was cultured in DMEM medium-contained 10 % fetal bovine serum (FBS), seeded as 5x10^3 cells per well in 96-well cell culture plate, and incubated at 37 °C in 5 % CO2 incubator. After 24 h for cell attachment, serial concentrations (25-800 nM) of the synthetic compounds and currently used chemotherapy (doxorubicin) were incubated with Wi-38 cells for 72 h. Cell viability was assayed by the MTT method. Twenty microliters of 5 mg/ml MTT (Sigma, USA) were added to each well and the plate was incubated at 37 °C for 3 h. Then MTT solution was removed, 100 µl DMSO was added and the absorbance of each well was measured with a microplate reader (BMG LabTech, Germany) at 570 nm. Plot of Wi-38 cell […]
(§5) compounds (8 and 9) and the reference chemotherapy (Dox) is illustrated in figure 39-A. The effective […]
(§6) was estimated by the Graphpad Instat software. Additionally, morphology of Wi-38 before and after […]
(§7) microscope with a digital camera (Olympus, Japan).
(§8) 2.2. Determination of the anticancer activity
The anticancer effect of the above-mentioned compounds, in comparison with doxorubicin (Dox), was assayed using three human cancer cell lines. Colon cancer cell line (Caco-2) was cultured in DMEM (Lonza, USA) contained with 10 % FBS while liver cancer cell line (HepG-2) and triple-negative breast cancer cell line (MDA- MB 231) were cultured in RPMI-1640 (Lonza, U SA) supplemented with 10 % FBS. […]
compounds were incubated with three cancer cell lines for 72 h at 37 °C in a 5 % CO2 incubator. MTT method was done as described above. Plots of cancer cells viability (%) and growth inhibition (%) of the studied […]
(§9) illustrated in figure 39. […]
(§10) The half-maximal inhibitory concentration (IC50) values were calculated using the Graphpad Instat […]
(§11) safest anticancer compounds were investigated using phase-contrast inverted microscope with a digital […]
(§12) ratio of IC50 value of normal cells to IC50 value of each studied cancer cell lines.
(§13) Figure S40. Plot of (A) Wi-38 cell viability (%) and (B-D) growth inhibition (%) of cancer cell lines with […]

Another data set deals with MDA-MB 231. As to the kind of experiment: MTT anticancer activity, MDA-MB 231. Type of data set: cell-based, human. The settings on record: for IC50: Homo sapiens, MDA-MB 231, 72 h, MTT, mean ± SEM; for SI: ratio IC50 on normal cells (Wi-38) / IC50 on MDA-MB 231.
From the text: as §1, §2, §3, §4, §5, §6, §7, §8
(§14) The anticancer effect of the above-mentioned compounds, in comparison with doxorubicin (Dox), was assayed using three human cancer cell lines. Colon cancer cell line (Caco-2) was cultured in DMEM (Lonza, USA) contained with 10 % FBS while liver cancer cell line (HepG-2) and triple-negative breast cancer cell line (MDA- MB 231) were cultured in RPMI-1640 (Lonza, U SA) supplemented with 10 % FBS. […] After 24h, serial concentrations (0.2-125 nM) of the tested compounds were incubated with three cancer cell lines for 72 h at 37 °C in a 5 % CO2 incubator. MTT method was done as described above. Plots of cancer cells viability (%) and growth inhibition (%) of the studied […]
as §9, §10, §11, §12, §13

Another data set deals with Caco-2. As to the kind of experiment: MTT anticancer activity, Caco-2. Conditions: for IC50: Homo sapiens, Caco-2, 72 h, MTT, mean ± SEM. In kind it is cell-based, human.
From the text: as §1, §2, §3, §4, §5, §6, §7, §8, §14, §9, §10, §11, §12, §13

Data set [1] deals with normal human lung fibroblasts (Wi-38). As to the kind of experiment: MTT cytotoxicity screening on normal human lung fibroblasts (Wi-38). Type of data set: cell-based. Conditions: for IC50: Homo sapiens; for IC50 / EC100: Wi-38, 72 h, MTT, mean ± SEM; for EC100: concentration at 100% cell viability.
From the text: as §1, §2, §3, §4, §5, §6
microscope with a digital camera (Olympus, Japan). […]

The next data set concerns the target T1, MMP-2 (Homo sapiens, UniProt P08253).
T1 construct: read from the 'ab' catalogue number) ab139446
As to the kind of experiment: MMP-2 inhibitor screening kit (colorimetric). In kind it is biochemical. The settings on record: in vitro MMP-2. Here is the method:
VEGFR-2 inhibition was detected by VEGFR-2 (KDR) Kinase Assay Kit-BPS Bioscience Corporation catalog # 40325 [107]. MMP-2 inhibitory activities were evaluated utilizing MMP-2 inhibitor screening kit (Colorimetric) catalog # ab139446 [108]. CA II inhibition assay was performed as reported. The protocols are detailed in the Supplementary Materials.
2.4. MMP-2 inhibitory activity assay […]
inhibitor screening kit (Colorimetric) catalog # ab139446 following the manufacturer’s instructions. The assay uses a thiopeptide as a chromogenic substrate. The MMP cleavage site peptide bond is replaced by a thioester bond in the thiopeptide. Hydrolysis of this bond by MMP-2 produces a sulfhydryl group, which reacts with Ellman’s reagent to form 2-nitr o-5-thiobenzoic acid that can be detected by its absorbance at 412 nm. The pr ocedure of MMP -2 inhibiti on assay is as foll owing
- Add test compounds and diluted enzyme solution to the microplate wells.
- Simultaneously establish the following control wells.
- Vehicle control contains MMP enzyme and vehicle used in delivering test compound (DMSO, concentration […]
- bring the total volume of all controls to 50 µL. Pre-incubate the plate for 10 min. at assay temperature to 37°C.
- Run the enzymatic reaction. […]
inhibited), which were calculated from dose-response curve obtained using eight tested concentrations of the inhibitor and carried out in duplicate. […]

Setting [2] is: ratio IC50 on normal cells (Wi-38) / IC50 on Caco-2.

Values joined by “and” are separate entries in the source; they are usually repeats but may differ in a detail not shown here. Equal entries are not always repeated. Where two headings read alike, the source gives them in different places.

T1 sequence (P08253 110-446 limits assumed): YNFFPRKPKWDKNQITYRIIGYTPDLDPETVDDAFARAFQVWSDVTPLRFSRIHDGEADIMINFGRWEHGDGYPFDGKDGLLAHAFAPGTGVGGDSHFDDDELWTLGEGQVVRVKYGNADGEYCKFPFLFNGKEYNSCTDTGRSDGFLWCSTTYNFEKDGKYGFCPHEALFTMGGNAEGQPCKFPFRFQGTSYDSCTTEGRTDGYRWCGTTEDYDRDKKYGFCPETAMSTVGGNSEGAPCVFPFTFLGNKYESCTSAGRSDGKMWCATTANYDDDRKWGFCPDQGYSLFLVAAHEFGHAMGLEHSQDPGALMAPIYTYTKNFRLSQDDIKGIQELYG

Take `Cc1cc(=O)[nH]c(NN=C[C@H](O)[C@@H](O)[C@H](O)CO)n1` [Compound 2, D-Xylose-(6-methyl-4-oxo-2-pyrimidinyl)hydrazone]: the melting point (in general, the temperature, or range, at which the solid turns liquid) lay in the range of 215 to 216 °C. For the same molecule, in the data set with HepG-2, half-maximal inhibition (IC50) required 3.55 ± 0.0355 µM and the SI was 0.02. In addition, in the data set on MDA-MB 231, the IC50 (in general, the midpoint of a concentration-inhibition curve) turned out to be 0.1 ± 0.00299 µM and the SI was found to be 0.93. The concentration for half-maximal inhibition (IC50) with Caco-2 is 0.128 ± 0.00148 µM. Further, the SI in the data set with Caco-2 (setting [2]) is recorded as 0.73. Further, in data set [1], the 50% inhibitory concentration (IC50) amounted to 0.09286 ± 0.00035 µM and the EC100 is reported as 46.35 ± 1.35 nM.
As for `Cc1cc(=O)[nH]c(NN=C[C@H](O)[C@@H](O)[C@H](O)[C@H](O)CO)n1` [Compound 3, D-Glucose-(6-methyl-4-oxo-2-pyrimidinyl)hydrazone], the melting point is 240 to 242 °C. In the data set on HepG-2, the midpoint of inhibition, the IC50, lay at 3.49 ± 0.182 µM and the SI was 0.05. In addition, in the data set on MDA-MB 231, the IC50 turned out to be 0.0758 ± 0.00125 µM and the SI was found to be 2.33. In the data set with Caco-2, half-maximal inhibition (IC50) required 0.09649 ± 9e-05 µM. Moreover, the SI in the data set with Caco-2 (setting [2]) is listed as 1.83. In data set [1], this molecule gave a half-inhibitory concentration (IC50) of 0.176 ± 0.00414 µM and an EC100 of 84.54 ± 1.00 nM.
`Cc1cc(=O)[nH]c(NN=C[C@@H](O)[C@@H](O)[C@H](O)[C@H](O)CO)n1` [Compound 4, D-Mannose-(6-methyl-4-oxo-2-pyrimidinyl)hydrazone] had a melting point of 220 to 222 °C. For the same molecule, in the data set on HepG-2, the IC50 is 4.94 ± 0.101 µM and the SI is reported as 0.03. For the same molecule, in the data set on MDA-MB 231, the IC50 came to 0.0937 ± 0.00269 µM and the SI was determined as 1.37. Further, the IC50 in the data set on Caco-2 stood at 0.1081 ± 0.00062 µM. In addition, the SI in the data set on Caco-2 (setting [2]) is reported as 1.19. For the same molecule, in data set [1], half-maximal inhibition (IC50) required 0.128 ± 0.00296 µM and the EC100 was 64.61 ± 0.68 nM.
As to `Cc1cc(=O)[nH]c(NN=C[C@H](O)[C@@H](O)[C@@H](O)[C@H](O)CO)n1` [Compound 5, D-Galactose-(6-methyl-4-oxo-2-pyrimidinyl)hydrazone], the melting point is 213 to 214 °C. Moreover, in the data set on HepG-2, the IC50 came out at 3.82 ± 0.126 µM and the SI is on record as 0.03. In the data set on MDA-MB 231, half-maximal inhibition (IC50) required 0.0833 ± 0.00306 µM and the SI was determined as 1.23. In the data set with Caco-2, this molecule had a concentration for half-maximal inhibition (IC50) of 0.111 ± 0.00294 µM. Also, the SI in the data set with Caco-2 (setting [2]) was found to be 0.92. In data set [1], this molecule returned an IC50 of 0.103 ± 0.00125 µM and an EC100 of 48.16 ± 1.66 nM.
Molecule `CC(=O)OCC(OC(C)=O)C(OC(C)=O)C(OC(C)=O)C1N(C(C)=O)N(C(C)=O)c2nc(C)cc(=O)n21` [Compound 6, N^1,N^2-Diacetyl-3-(1,2,3,4-tetra-O-acetyl-D-xylo-tetritol-1-yl)-7-methyl-5-oxo-1,2,4-triazolo[4,3-a]pyrimidine] showed a melting point of 112 to 114 °C. In the data set on HepG-2, the IC50 is 4.628 ± 0.033 µM and the SI amounted to 0.13. Also, in the data set with MDA-MB 231, the IC50 stood at 0.0463 ± 0.00332 µM and the SI was determined as 12.69. The same molecule registered an IC50 in the data set on Caco-2 of 0.05406 ± 0.00047 µM. For the same molecule, in the data set on Caco-2 (setting [2]), the SI is given as 10.86. In data set [1], it took 0.5871 ± 0.00448 µM to reach half-maximal inhibition (IC50) and the EC100 stood at 353.7 ± 9.54 nM.
For the molecule `CC(=O)OCC(OC(C)=O)C(OC(C)=O)C(OC(C)=O)C(OC(C)=O)C1N(C(C)=O)N(C(C)=O)c2nc(C)cc(=O)n21` [Compound 7, N^1,N^2-Diacetyl-3-(1,2,3,4,5-penta-O-acetyl-D-galacto-pentitol-1-yl)-7-methyl-5-oxo-1,2,4-triazolo[4,3-a]pyrimidine], the melting point was 97 to 100 °C. Besides, in the data set with HepG-2, the concentration for half-maximal inhibition (IC50) came out at 3.73 ± 0.252 µM and the SI amounted to 0.23. Also, in the data set on MDA-MB 231, the IC50 is 0.03999 ± 4e-05 µM and the SI came out at 21.82. Also, in the data set with Caco-2, the IC50 worked out at 0.04744 ± 0.00038 µM. Besides, in the data set with Caco-2 (setting [2]), the SI is on record as 18.39. Moreover, in data set [1], the IC50 turned out to be 0.873 ± 0.0163 µM; the EC100 is 664.3 nM and 664.3 ± 26.60 nM.
`CC(=O)OC[C@@H](OC(C)=O)[C@@H](OC(C)=O)[C@H](OC(C)=O)[C@H](OC(C)=O)[C@@H]1N(C(C)=O)N(C(C)=O)c2nc(C)cc(=O)n21` [Compound 9, N^1,N^2-Diacetyl-3-(1,2,3,4,5-penta-O-acetyl-D-manno-pentitol-1-yl)-5-methyl-7-oxo-1,2,4-triazolo[4,3-a]pyrimidine] had a melting point of 100 to 102 °C.
As to `COc1cccc2c1C(=O)c1c(O)c3c(c(O)c1C2=O)C[C@@](O)(C(=O)CO)C[C@@H]3O[C@H]1C[C@H](N)[C@H](O)[C@H](C)O1` [Doxorubicin, doxorubicin, reference compound], the 50% inhibitory concentration (IC50) is 0.0225 ± 0.01 µM in the data set with HepG-2, 0.0106 ± 0.0001 µM in the data set with MDA-MB 231, 0.0483 ± 0.03 µM in the data set with Caco-2 and 0.03 ± 0.001 µM in data set [1]. Besides, the SI in the data set on HepG-2 is 1.33; in the data set on MDA-MB 231, 2.83; with Caco-2 it was 0.62. The values for the EC100 in data set [1] and in data set [1] (listed as Dox) were 11.50 ± 0.50 nM and 11.5 nM, respectively. Further, the “morphological alteration of treated cells” value in data set [1] (Wi-38 at 30 nM, phase-contrast microscopy) was “morphological damage”.
With `COc1ccc(S(=O)(=O)N(CC(=O)NO)CC(C)C)cc1` [NNGH, N-Isobutyl-N-(4-methoxyphenylsulfonyl)glycyl hydroxamic acid], the IC50 at MMP-2 stood at 0.298 ± 0.0202 µM.

The record behind these values is publication PMC9026109, “Enhancing the Anticancer Potential of Targeting Tumor-Associated Metalloenzymes via VEGFR Inhibition by New Triazolo[4,3-a]pyrimidinone Acyclo C-Nucleosides Multitarget Agents” (Molecules, 2022).
